# In ChEMBL document CHEMBL4406882, “The plant-derived chalcone Xanthoangelol targets the membrane of Gram-positive bacteria” (Bioorg Med Chem, 2019):
# The source made the active and inactive calls. The calls are words filed in the database; no cut-off is given here.
# Legend:
# MRC5 = test: Cytotoxicity against human MRC5 cells assessed as reduction in cell viability incubated for 48 hrs by resazurin reagent based assay; settings: Homo sapiens, MRC5, 48 h
# Enterococcus faecalis = test: Antibacterial activity against vancomycin-resistant Enterococcus faecalis ATCC 51299 by broth micro dilution method; type: functional
# [1] = Selectivity index, ratio of IC50 for human MRC5 cells to MIC90 for methicillin-resistant Staphylococcus aureus ATCC 700699; type: toxicity; settings: read-out: Selectivity Index
# Bacillus subtilis [2] = test: Induction of YfmJ protein expression in Bacillus subtilis 168 at 2.3 uM incubated for 15 mins by 35S-methionine pulse labeling based 2D-PAGE analysis; type: functional, organism-based
# Bacillus subtilis [3] = test: Induction of DnaK.2 protein expression in Bacillus subtilis 168 at 2.3 uM incubated for 15 mins by 35S-methionine pulse labeling based 2D-PAGE analysis; type: functional, organism-based
# Bacillus subtilis [4] = test: Antibacterial activity against Bacillus subtilis 168 by broth micro dilution method; type: functional
# Staphylococcus aureus [5] = test: Induction of membrane integrity impairment in methicillin resistant Staphylococcus aureus Mu50 harboring GFP reporter plasmid assessed as increase in release of GFP at 1 to 16 times MIC incubated for 3 to 6 hrs by […]; type: functional, organism-based
# Bacillus subtilis [6] = test: Induction of YuaE protein expression in Bacillus subtilis 168 at 2.3 uM incubated for 15 mins by 35S-methionine pulse labeling based 2D-PAGE analysis; type: functional, organism-based
# Bacillus subtilis [7] = test: Induction of YhfK protein expression in Bacillus subtilis 168 at 2.3 uM incubated for 15 mins by 35S-methionine pulse labeling based 2D-PAGE analysis; type: functional, organism-based
# Bacillus subtilis [8] = test: Induction of Hag protein expression in Bacillus subtilis 168 at 2.3 uM incubated for 15 mins by 35S-methionine pulse labeling based 2D-PAGE analysis; type: functional, organism-based
# Bacillus subtilis [9] = test: Induction of GroES protein expression in Bacillus subtilis 168 at 2.3 uM incubated for 15 mins by 35S-methionine pulse labeling based 2D-PAGE analysis; type: functional, organism-based
# Staphylococcus aureus [10] = test: Antibacterial activity against methicillin-resistant Staphylococcus aureus ATCC 700699 assessed as delay in growth at 6.25 uM measured for 24 hrs relative to control; type: functional
# Bacillus subtilis [11] = test: Induction of HisG protein expression in Bacillus subtilis 168 at 2.3 uM incubated for 15 mins by 35S-methionine pulse labeling based 2D-PAGE analysis; type: functional, organism-based
# [12] = Cytotoxicity against human CLS54 cells assessed as reduction in cell viability incubated for 48 hrs by resazurin reagent based assay
# [13] = (§1) Cytotoxicity against human HepG2 cells assessed as reduction in cell viability incubated for 48 hrs by resazurin reagent based assay; settings: human, HepG2 cells
# HepG2 = test: as §1; settings: Homo sapiens, HepG2, 48 h
# Bacillus subtilis [14] = test: Induction of SerA protein expression in Bacillus subtilis 168 at 2.3 uM incubated for 15 mins by 35S-methionine pulse labeling based 2D-PAGE analysis; type: functional, organism-based
# Bacillus subtilis [15] = test: Induction of BdhA protein expression in Bacillus subtilis 168 at 2.3 uM incubated for 15 mins by 35S-methionine pulse labeling based 2D-PAGE analysis; type: functional, organism-based
# Bacillus subtilis [16] = test: Induction of ArgB protein expression in Bacillus subtilis 168 at 2.3 uM incubated for 15 mins by 35S-methionine pulse labeling based 2D-PAGE analysis; type: functional, organism-based
# Bacillus subtilis [17] = test: Induction of SufD protein expression in Bacillus subtilis 168 at 2.3 uM incubated for 15 mins by 35S-methionine pulse labeling based 2D-PAGE analysis; type: functional, organism-based
# Bacillus subtilis [18] = test: Induction of PpaC protein expression in Bacillus subtilis 168 at 2.3 uM incubated for 15 mins by 35S-methionine pulse labeling based 2D-PAGE analysis; type: functional, organism-based
# Bacillus subtilis [19] = test: Induction of PdhA protein expression in Bacillus subtilis 168 at 2.3 uM incubated for 15 mins by 35S-methionine pulse labeling based 2D-PAGE analysis; type: functional, organism-based
# Bacillus subtilis [20] = test: Induction of SodA protein expression in Bacillus subtilis 168 at 2.3 uM incubated for 15 mins by 35S-methionine pulse labeling based 2D-PAGE analysis; type: functional, organism-based
# Bacillus subtilis [21] = test: Induction of PepF protein expression in Bacillus subtilis 168 at 2.3 uM incubated for 15 mins by 35S-methionine pulse labeling based 2D-PAGE analysis; type: functional, organism-based
# [22] = Selectivity index, ratio of IC50 for human HepG2 cells to MIC90 for methicillin-resistant Staphylococcus aureus ATCC 700699; type: toxicity; settings: read-out: Selectivity Index
# [23] = Selectivity index, ratio of IC50 for human CLS54 cells to MIC90 for methicillin-resistant Staphylococcus aureus ATCC 700699; type: toxicity; settings: read-out: Selectivity Index
# [24] = (§2) Cytotoxicity against human THP1 cells assessed as reduction in cell viability incubated for 48 hrs by resazurin reagent based assay; design: species or system THP-1; settings: human, THP1 cells
# THP-1 = test: as §2; settings: Homo sapiens, THP-1, 48 h
# [25] = (§3) Cytotoxicity against human HEK293 cells assessed as reduction in cell viability incubated for 48 hrs by resazurin reagent based assay; settings: human, HEK293 cells
# HEK293 = test: as §3; settings: Homo sapiens, HEK293, 48 h
# Bacillus subtilis [26] = test: Induction of CysK protein expression in Bacillus subtilis 168 at 2.3 uM incubated for 15 mins by 35S-methionine pulse labeling based 2D-PAGE analysis; type: functional, organism-based
# Bacillus subtilis [27] = test: Induction of YqiG protein expression in Bacillus subtilis 168 at 2.3 uM incubated for 15 mins by 35S-methionine pulse labeling based 2D-PAGE analysis; type: functional, organism-based
# Bacillus subtilis [28] = test: Induction of YkgB protein expression in Bacillus subtilis 168 at 2.3 uM incubated for 15 mins by 35S-methionine pulse labeling based 2D-PAGE analysis; type: functional, organism-based
# Staphylococcus aureus [29] = test: Antibacterial activity against methicillin-resistant Staphylococcus aureus ATCC 700699 by broth micro dilution method; type: functional
# Bacillus subtilis [30] = test: Induction of Hom protein expression in Bacillus subtilis 168 at 2.3 uM incubated for 15 mins by 35S-methionine pulse labeling based 2D-PAGE analysis; type: functional, organism-based
# Bacillus subtilis [31] = test: Induction of DnaK.1 protein expression in Bacillus subtilis 168 at 2.3 uM incubated for 15 mins by 35S-methionine pulse labeling based 2D-PAGE analysis; type: functional, organism-based
structure (smiles),measurement,setting,value
CC(C)=CCC/C(C)=C/Cc1c(O)ccc(C(=O)/C=C/c2ccc(O)cc2)c1O [XANTHOANGELOL],IC50,MRC5,21.7 µM
same,MIC,Enterococcus faecalis,6.25 µM
same,selectivity ratio,[1],16.3
same,Activity,Bacillus subtilis [2],Active
same,Activity,Bacillus subtilis [3],Active
same,MIC,Bacillus subtilis [4],3.12 µM
same,Activity,Staphylococcus aureus [5],Active
same,Activity,Bacillus subtilis [6],Active
same,Activity,Bacillus subtilis [7],Active
same,Activity,Bacillus subtilis [8],Active
same,Activity,Bacillus subtilis [9],Active
same,Activity,Staphylococcus aureus [10],100%
same,Activity,Bacillus subtilis [11],Active
same,IC50,"[12]; Homo sapiens, 48 h",58.8 µM
same,IC90 at 48 h,"[12]; human, CLS54 cells",85.8 µM
same,IC90 at 48 h,[13],37.4 µM
same,IC50,HepG2,13.7 µM
same,Activity,Bacillus subtilis [14],Active
same,Activity,Bacillus subtilis [15],Active
same,Activity,Bacillus subtilis [16],Active
same,Activity,Bacillus subtilis [17],Active
same,Activity,Bacillus subtilis [18],Active
same,Activity,Bacillus subtilis [19],Active
same,Activity,Bacillus subtilis [20],Active
same,Activity,Bacillus subtilis [21],Active
same,selectivity ratio,[22],10.3
same,selectivity ratio,[23],44.2
same,IC90 at 48 h,[24],39.1 µM
same,IC50,THP-1,23.6 µM
same,IC90 at 48 h,[25],44.8 µM
same,IC50,HEK293,21.5 µM
same,Activity,Bacillus subtilis [26],Active
same,Activity,Bacillus subtilis [27],Active
same,Activity,Bacillus subtilis [28],Active
same,MIC,Staphylococcus aureus [29],3.12 µM
same,MIC50,Staphylococcus aureus [29],0.96 µM
same,MIC90,Staphylococcus aureus [29],1.33 µM
same,Activity,Bacillus subtilis [30],Active
same,Activity,Bacillus subtilis [31],Active
